Measured values as given in patent US10662259B2, “Glycogen-based water solubility enhancers” (AZIENDE CHIMICHE RIUNITE ANGELINI FRANCESCO A.C.R.A.F. …, priority 2013, dated 2020).

Columns and labels:
[1] = Solubility enhancement of astaxanthin in water solutions of the compounds (HPLC); settings: water solution containing 5 mg/mL of compound, excess astaxanthin (1 mg/mL), room temperature, 24 hours, 0.45 μm filter
Protocol: The suspension was mixed using a laboratory shaker at room temperature for 24 hours. The concentration (mg/mL) of solubilized astaxanthin was determined by HPLC analysis. The sample was prepared for chromatographic analysis by filtering through a 0.45 μm MCE filter.
An X-Bridge™ Shield RP18 column (4.6×150 mm) was used. A suitable HPLC analytical method was developed for quantitating the amount of astaxanthin in solution.
The absorbance was monitored at 489 nm and the injection volume was 6 μL. In these chromatographic conditions, astaxanthin was eluted in about 4.0 minutes.
An appropriate dilution of each sample was made with dimethylsulfoxide, such that astaxanthin final concentration was within the linear portion of the standard curve, prior to injection onto the HPLC column.
The amount of astaxanthin in mg/mL was calculated by introducing the analyte peak area in the calibration curve fit-equation and multiplying the result by the dilution factor.

[2] = β-carotene alone; cited from earlier work
[3] = Solubility enhancement of β-carotene in water solutions of the compounds (HPLC); settings: 5 mg/mL compound in water, excess β-carotene
Protocol: The suspensions were left under stirring for 24 hours. Solutions A to N were obtained.
The suspensions were left under stirring for 24 hours. Solutions O to R were obtained.
An excess amount of β-carotene (5 mg/mL) was added to 1 mL of each solution A to R. The suspension was mixed using a laboratory shaker at room temperature for 24 hours. The concentration (mg/mL) of solubilized β-carotene was determined by HPLC analysis. The sample was prepared for chromatographic analysis by filtering through a 0.45 μm MCE filter.
An X-Bridge™ Shield RP18 column (4.6×150 mm) was used. A suitable HPLC analytical method was developed for quantitating the amount of drug in solution.
An appropriate dilution of each sample was made with dimethylsulfoxide, such that β-carotene final concentration was within the linear portion of the standard curve, prior to injection onto the HPLC column.
The amount of β-carotene in mg/mL was calculated by introducing the analyte peak area in the calibration curve fit-equation and multiplying the result by the dilution factor.

Compound	Aqueous solubility of astaxanthin in the presence of the compound [1] [µg/mL]	Water solubility [2]	Visual aspect of the solution with β-carotene [3]
OC[C@H]1O[C@@H]2O[C@H]3[C@H](O)[C@@H](O)[C@@H](O[C@H]4[C@H](O)[C@@H](O)[C@@H](O[C@H]5[C@H](O)[C@@H](O)[C@@H](O[C@H]6[C@H](O)[C@@H](O)[C@@H](O[C@H]7[C@H](O)[C@@H](O)[C@@H](O[C@H]8[C@H](O)[C@@H](O)[C@@H](O[C@H]9[C@H](O)[C@@H](O)[C@@H](O[C@H]1[C@H](O)[C@H]2O)O[C@@H]9CO)O[C@@H]8CO)O[C@@H]7CO)O[C@@H]6CO)O[C@@H]5CO)O[C@@H]4CO)O[C@@H]3CO [Compound 14, γ-cyclodextrin (CAVAMAX W8)]	1.2	–	–
OC[C@H]1O[C@@H]2O[C@H]3[C@H](O)[C@@H](O)[C@@H](O[C@H]4[C@H](O)[C@@H](O)[C@@H](O[C@H]5[C@H](O)[C@@H](O)[C@@H](O[C@H]6[C@H](O)[C@@H](O)[C@@H](O[C@H]7[C@H](O)[C@@H](O)[C@@H](O[C@H]8[C@H](O)[C@@H](O)[C@@H](O[C@H]1[C@H](O)[C@H]2O)O[C@@H]8CO)O[C@@H]7CO)O[C@@H]6CO)O[C@@H]5CO)O[C@@H]4CO)O[C@@H]3CO [Compound 15, β-cyclodextrin (CAVAMAX W7)]	0.5	–	–
CC1=C(/C=C/C(C)=C/C=C/C(C)=C/C=C/C=C(C)/C=C/C=C(C)/C=C/C2=C(C)CCCC2(C)C)C(C)(C)CCC1 [β-carotene]	–	below 1 mg/L	–
HP-β-cyclodextrin (CAVASOL W7 HP) [Compound 16]	0.7	–	pale pink color
